{"source": "paper PMC5772529", "about": "(Scientific Reports, 2018)", "key": {"mice [1]": {"system": "mice", "details": "mouse, in vivo"}, "mice [2]": {"system": "mice", "details": "mouse, in vivo", "remark": "listed apart in the source"}, "Beagle dogs": {"system": "Beagle dogs", "details": "dog, in vivo"}, "mice [3]": {"system": "mice", "details": "mouse, in vivo", "remark": "listed apart in the source"}, "rats": {"system": "rats", "details": "rat, in vivo"}}, "note": "Positions of bridges follow the written chain, without caps; N, C: chain ends. Residues, ends and D or L forms follow the SMILES beside them."}
{"smiles": "CSCC[C@@H]1NC(=O)[C@@H]2CSSC[C@H](NC(=O)CN)C(=O)N[C@@H](CSSC[C@@H](C(N)=O)NC(=O)[C@H](CC(C)C)NC(=O)[C@H](CC(N)=O)NC(=O)[C@@H]3CCCN3C(=O)[C@H](CC(N)=O)NC(=O)[C@H](CCCCN)NC(=O)[C@H](CC(C)C)NC1=O)C(=O)N[C@@H](CO)C(=O)N[C@@H](CC(N)=O)C(=O)N1CCC[C@H]1C(=O)N[C@@H](C)C(=O)N2", "note": "[Eu1.6] (H-GCCSNPACMLKNPNLC-NH2; disulfide 2-8, 3-16)", "values": [{"measurement": "activity at KCNQ1 channels", "setting": "KCNQ1", "value": "no activity"}, {"measurement": "effect on mice motor function", "setting": "mice [1]", "value": "did not show any significant effect"}, {"measurement": "effects on mice spontaneous locomotor activity", "setting": "mice [2]", "value": "no significant effects"}, {"measurement": "effects on spontaneous locomotor activity (moving distance and activity time in 6 min)", "setting": "mice [2]", "value": "no significant effects"}, {"measurement": "effect on cardiac or respiratory function", "setting": "Beagle dogs", "value": "did not show any significant effect"}, {"measurement": "effect on the cardiac and respiratory function", "setting": "Beagle dogs", "value": "no significant effect"}, {"measurement": "morphine-like addictive symptoms", "setting": "mice [3]", "value": "did not exhibit the morphine-like addictive symptoms"}, {"measurement": "morphine-like dependence (naloxone-induced jumping number, weight loss)", "setting": "mice [3]", "value": "did not produce morphine-like dependence"}, {"measurement": "side-effects in acute tests of rats", "setting": "rats", "value": "did not exhibit any significant side-effects"}]}
